Measurements as given in PubChem BioAssay (NCI).
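Step 1: Grow cells in 96-well plates. Step 2: Expose to compound for 48 hours at 5 concentrations. Step 3: Interpolate endpoints linearly; if unreached, use highest concentration. TGI: concentration producing complete growth inhibition.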

Experiments:
Assay in all cases: NCI anticancer screen, dose series, 48 h
PC-3 prostate = tested on: PC-3 prostate
SR leukemia = tested on: SR leukemia
SK-MEL-28 melanoma = tested on: SK-MEL-28 melanoma
MDA-MB-435 = tested on: MDA-MB-435
SK-MEL-5 melanoma = tested on: SK-MEL-5 melanoma
NCI-H23 lung = tested on: NCI-H23 lung
SNB-75 CNS = tested on: SNB-75 CNS
SN12C renal = tested on: SN12C renal
HT29 colon = tested on: HT29 colon
SK-MEL-2 melanoma = tested on: SK-MEL-2 melanoma
M14 melanoma = tested on: M14 melanoma
SK-OV-3 ovarian = tested on: SK-OV-3 ovarian
CAKI-1 renal = tested on: CAKI-1 renal
SW-620 colon = tested on: SW-620 colon
BT-549 breast = tested on: BT-549 breast
OVCAR-4 ovarian = tested on: OVCAR-4 ovarian
OVCAR-8 ovarian = tested on: OVCAR-8 ovarian
HCT-15 colon = tested on: HCT-15 colon
A498 renal = tested on: A498 renal
HCT-116 colon = tested on: HCT-116 colon
MDA-MB-231 breast = tested on: MDA-MB-231 breast
786-0 renal = tested on: 786-0 renal
KM12 colon = tested on: KM12 colon
MOLT-4 leukemia = tested on: MOLT-4 leukemia
OVCAR-3 ovarian = tested on: OVCAR-3 ovarian
DU-145 prostate = tested on: DU-145 prostate
K-562 leukemia = tested on: K-562 leukemia
RPMI-8226 leukemia = tested on: RPMI-8226 leukemia
MALME-3M melanoma = tested on: MALME-3M melanoma
EKVX NSCLC = tested on: EKVX NSCLC
RXF 393 renal = tested on: RXF 393 renal
CCRF-CEM leukemia = tested on: CCRF-CEM leukemia
HCC-2998 colon = tested on: HCC-2998 colon
HS 578T breast = tested on: HS 578T breast
NCI-H522 lung = tested on: NCI-H522 lung
ACHN renal = tested on: ACHN renal
A549 NSCLC = tested on: A549 NSCLC
LOX IMVI melanoma = tested on: LOX IMVI melanoma
NCI-H226 lung = tested on: NCI-H226 lung
IGROV1 ovarian = tested on: IGROV1 ovarian
SF-268 CNS = tested on: SF-268 CNS
SNB-19 CNS = tested on: SNB-19 CNS
HL-60(TB) leukemia = tested on: HL-60(TB) leukemia
MDA-N = tested on: MDA-N
MCF7 breast = tested on: MCF7 breast
UO-31 renal = tested on: UO-31 renal
HOP-62 NSCLC = tested on: HOP-62 NSCLC
COLO 205 colon = tested on: COLO 205 colon
OVCAR-5 ovarian = tested on: OVCAR-5 ovarian
NCI/ADR-RES ovarian = tested on: NCI/ADR-RES ovarian
T-47D breast = tested on: T-47D breast
SF-295 CNS = tested on: SF-295 CNS
U251 CNS = tested on: U251 CNS
UACC-62 melanoma = tested on: UACC-62 melanoma
NCI-H460 lung = tested on: NCI-H460 lung
HOP-92 NSCLC = tested on: HOP-92 NSCLC
UACC-257 melanoma = tested on: UACC-257 melanoma
SF-539 CNS = tested on: SF-539 CNS
TK-10 renal = tested on: TK-10 renal

CCOC(=O)c1ccc(C(=O)/C(C#N)=C2\CCCN2)n1C was tested, and the TGI (PC-3 prostate) was > 100 µM, the TGI (SR leukemia) was > 100 µM and the TGI (SK-MEL-28 melanoma) was > 100 µM. The TGI (MDA-MB-435) was > 100 µM, the TGI (SK-MEL-5 melanoma) was > 100 µM and the TGI (NCI-H23 lung) was > 100 µM. For the same compound, the TGI (SNB-75 CNS) was > 100 µM, the TGI (SN12C renal) was > 100 µM and the TGI (HT29 colon) was > 100 µM. The TGI (SK-MEL-2 melanoma) was > 100 µM, the TGI (M14 melanoma) was > 100 µM and the TGI (SK-OV-3 ovarian) was > 100 µM. The TGI (CAKI-1 renal) was > 100 µM, the TGI (SW-620 colon) was > 100 µM and the TGI (BT-549 breast) was > 100 µM. For the same compound, the TGI (OVCAR-4 ovarian) was > 100 µM, the TGI (OVCAR-8 ovarian) was > 100 µM and the TGI (HCT-15 colon) was > 100 µM. The TGI (A498 renal) was > 100 µM, the TGI (HCT-116 colon) was > 100 µM and the TGI (MDA-MB-231 breast) was > 100 µM. The TGI (786-0 renal) was > 100 µM, the TGI (KM12 colon) was > 100 µM and the TGI (MOLT-4 leukemia) was > 100 µM. For the same compound, the TGI (OVCAR-3 ovarian) was > 100 µM, the TGI (DU-145 prostate) was > 100 µM and the TGI (K-562 leukemia) was > 100 µM. For the same compound, the TGI (RPMI-8226 leukemia) was > 100 µM, the TGI (MALME-3M melanoma) was > 100 µM and the TGI (EKVX NSCLC) was > 100 µM. The TGI (RXF 393 renal) was > 100 µM, the TGI (CCRF-CEM leukemia) was > 100 µM and the TGI (HCC-2998 colon) was > 100 µM. For the same compound, the TGI (HS 578T breast) was > 100 µM, the TGI (NCI-H522 lung) was > 100 µM and the TGI (ACHN renal) was > 100 µM. For the same compound, the TGI (A549 NSCLC) was > 100 µM, the TGI (LOX IMVI melanoma) was > 100 µM and the TGI (NCI-H226 lung) was > 100 µM. The TGI (IGROV1 ovarian) was > 100 µM, the TGI (SF-268 CNS) was > 100 µM and the TGI (SNB-19 CNS) was > 100 µM. For the same compound, the TGI (HL-60(TB) leukemia) was > 100 µM, the TGI (MDA-N) was > 100 µM and the TGI (MCF7 breast) was > 100 µM. For the same compound, the TGI (UO-31 renal) was > 100 µM, the TGI (HOP-62 NSCLC) was > 100 µM and the TGI (COLO 205 colon) was > 100 µM. For the same compound, the TGI (OVCAR-5 ovarian) was > 100 µM, the TGI (NCI/ADR-RES ovarian) was > 100 µM and the TGI (T-47D breast) was > 100 µM. The TGI (SF-295 CNS) was > 100 µM, the TGI (U251 CNS) was > 100 µM and the TGI (UACC-62 melanoma) was > 100 µM. For the same compound, the TGI (NCI-H460 lung) was > 100 µM.

For CCOC(=O)c1cc(C)n(CN(CCO)Cn2nc(C(=O)OCC)cc2C)n1, the TGI (PC-3 prostate) was > 100 µM, the TGI (SR leukemia) was 72.7 µM and the TGI (SK-MEL-28 melanoma) was > 100 µM. For the same compound, the TGI (MDA-MB-435) was > 100 µM, the TGI (SK-MEL-5 melanoma) was > 100 µM and the TGI (NCI-H23 lung) was 53.8 µM. It also gave a TGI (SN12C renal) of 79.2 µM, a TGI (HT29 colon) of 47.4 µM and a TGI (SK-MEL-2 melanoma) of 36.8 µM. For the same compound, the TGI (M14 melanoma) was 44 µM, the TGI (SK-OV-3 ovarian) was > 100 µM and the TGI (CAKI-1 renal) was > 100 µM. The TGI (SW-620 colon) was > 100 µM, the TGI (BT-549 breast) was 68.7 µM and the TGI (OVCAR-4 ovarian) was > 100 µM. For the same compound, the TGI (OVCAR-8 ovarian) was 59.9 µM, the TGI (HCT-15 colon) was 48.1 µM and the TGI (A498 renal) was > 100 µM. It also gave a TGI (HCT-116 colon) of 37.7 µM, a TGI (MDA-MB-231 breast) of 91.2 µM and a TGI (786-0 renal) of 49.7 µM. The TGI (KM12 colon) was > 100 µM, the TGI (MOLT-4 leukemia) was > 100 µM and the TGI (OVCAR-3 ovarian) was 70.1 µM. The TGI (DU-145 prostate) was 71.5 µM, the TGI (HOP-92 NSCLC) was > 100 µM and the TGI (K-562 leukemia) was 78.3 µM. For the same compound, the TGI (RPMI-8226 leukemia) was 40.3 µM, the TGI (MALME-3M melanoma) was 96.1 µM and the TGI (EKVX NSCLC) was > 100 µM. It also gave a TGI (RXF 393 renal) of 43.9 µM, a TGI (CCRF-CEM leukemia) of 42.2 µM and a TGI (HCC-2998 colon) of 27.9 µM. The TGI (HS 578T breast) was > 100 µM, the TGI (NCI-H522 lung) was 52.1 µM and the TGI (ACHN renal) was 55.6 µM. For the same compound, the TGI (A549 NSCLC) was > 100 µM, the TGI (LOX IMVI melanoma) was 70.1 µM and the TGI (IGROV1 ovarian) was > 100 µM. The TGI (SF-268 CNS) was > 100 µM, the TGI (SNB-19 CNS) was > 100 µM and the TGI (UACC-257 melanoma) was > 100 µM. The TGI (HL-60(TB) leukemia) was > 100 µM, the TGI (MDA-N) was > 100 µM and the TGI (MCF7 breast) was 73.7 µM. It also gave a TGI (SF-539 CNS) of 33.6 µM, a TGI (UO-31 renal) of 53.2 µM and a TGI (HOP-62 NSCLC) of 62.9 µM. For the same compound, the TGI (COLO 205 colon) was 41.9 µM, the TGI (OVCAR-5 ovarian) was 54.1 µM and the TGI (TK-10 renal) was > 100 µM. The TGI (NCI/ADR-RES ovarian) was 42.5 µM, the TGI (T-47D breast) was 72.3 µM and the TGI (SF-295 CNS) was > 100 µM. For the same compound, the TGI (U251 CNS) was > 100 µM, the TGI (UACC-62 melanoma) was 38.2 µM and the TGI (NCI-H460 lung) was > 100 µM.
